# According to paper PMC10451377, “Rationally Designed Pyrimidine Compounds: Promising Novel Antibiotics for the Treatment of Staphylococcus aureus-Associated Bovine Mastitis” (Antibiotics, 2023):
# Where two headings read alike, the source gives them in different places.
# What was measured:
# [1] = MTT assay; type: cell-based; details: bovine, MAC-T cells, 24 h
# [2] = tested on: Staphylococcus epidermidis ATCC 12228; experiment: Broth microdilution MIC; details: ATCC12228, read-out: Broth Microdilution MIC
# [3] = tested on: Staphylococcus aureus ATCC 29213; experiment: Broth microdilution MIC; details: ATCC29213, read-out: Broth Microdilution MIC
# [4] = MTT assay; type: cell-based; details: human, HepG2 cells
# [5] = tested on: Enterococcus faecalis ATCC 29212; experiment: Broth microdilution MIC; details: ATCC29212, read-out: Broth Microdilution MIC
# [6] = LDH release assay; type: cell-based; details: human, HepG2 cells
# [7] = tested on: Escherichia coli ΔlptD4213; experiment: microbe, parasite or virus in culture; type: cell-based; details: read-out: Broth Microdilution MIC
# Text: (§1) Reference strains for this study (S. aureus ATCC 29213, ATCC 29740 [bovine mastitis strain Newbould], S. epidermidis ATCC 12228, E. coli ATCC 35695, E. faecalis ATCC 29212) were obtained from the American Type Culture Collection (ATCC, Rockville, MD). S. aureus strains CMRSA-10 and CMRSA-2 were obtained from the Laboratoire de santé publique du Québec (LSPQ, Sainte-Anne-de-Bellevue, QC, Canada) and are Canadian CA-MRSA USA-300 and HA-MRSA USA-100 clones, respectively. The strain E. coli imp4213 (lptD), used as a control in MIC assays, is a derivative of E. coli ATCC 35695 (E. coli MC4100) with an increased membrane permeability. […] Other MRSA strains used in this study are clinical isolates of human origin obtained from the microbiology laboratory of the Centre Hospitalier Universitaire de Sherbrooke (CHUS, Sherbrooke, QC, Canada). Bovine mastitis strains (S. aureus, S. chromogenes, S. haemolyticus, S. hominis, S. simulans) were obtained from the Canadian Bovine Mastitis and Milk Quality Research Network (CBRQMN, St-Hyacinthe, QC, Canada). Among these strains, S. aureus 2117 is a high producer of biofilm and was used in the biofilm-eradication assay. S. epidermidis isolates were provided by Centre de Recherche en Infectiologie (CRI) de Québec (Québec, QC, Canada).
# [8] = tested on: all tested bacterial strains, including non-staphylococci strains; experiment: Broth microdilution MIC, summary over all strains tested
# [9] = tested on: Bacillus subtilis xpt-lacZ; experiment: Broth microdilution MIC; type: cell-based; details: B. subtilis xpt-lacZ, read-out: Broth Microdilution MIC
# [10] = tested on: Staphylococcus aureus CMRSA-2; experiment: Broth microdilution MIC; type: cell-based; details: CMRSA2, read-out: Broth Microdilution MIC
# Text: as §1
# [11] = tested on: Staphylococcus aureus CMRSA-10; experiment: Broth microdilution MIC; type: cell-based; details: CMRSA10, read-out: Broth Microdilution MIC
# Text: as §1
# [12] = LDH release assay; type: cell-based; details: bovine, MAC-T cells, 24 h
# [13] = tested on: Escherichia coli ATCC 35695; experiment: Broth microdilution MIC; details: ATCC35695, read-out: Broth Microdilution MIC
# [14] = tested on: guanine riboswitch-lacZ fusion construct (xpt-lacZ); experiment: Riboswitch regulation assay (lacZ-gene reporter); type: cell-based, B. subtilis
# Text: The novel pyrimidine compounds, especially PC206, display specificity and potency against some staphylococci but not the other bacterial genus (Table 1 and Table 2). Because they are structurally derived from PC1 and PC2, these novel antibiotic candidates are expected to have the same mode of action. […] To verify this hypothesis, a strain of B. subtilis with a guanine riboswitch-lacZ fusion construct (named xpt-lacZ) integrated in its chromosome was exposed to these new antimicrobials. […] Therefore, it is an adequate reporter species. The metabolization of substrate ONPG into colored ONP was normalized by the bacterial suspension absorbance at 600 nm (Miller units) and relativized to the untreated condition.
# β-galactosidase gene expression in the presence of the new pyrimidine analogs was studied, using an xpt-lacZ transcriptional fusion construct integrated in the genome of B. subtilis as previously described. Briefly, cultures were grown for 5 h at 35 °C in CAMHB, from an initial optical density of 0.05 at 600 nm (OD600), and then diluted 1:20 and in the presence of different concentrations of the compounds tested. Cultures were centrifuged for 10 min at 13,100 rpm, the supernatant was discarded, and pellets were suspended in a Z-buffer (NaH2PO4 40 mM, Na2HPO4 60 mM, MgSO4 1 mM, KCl 10 mM). Cultures OD600 were measured, and bacteria were then lysed with lysozyme (1 mg/mL) and β-mercaptoethanol 50 mM for 30 min. Lysates were centrifuged for 10 min at 13,100 rpm, and supernatants were incubated for 5 min at 30 °C with the substrate orthonitrophenyl-β-galactoside (ONPG; Sigma Aldrich). Reactions were stopped with Na2CO3 1M, supernatants OD420 were measured, and Miller units were calculated. A decrease in β-galactosidase activity indicated binding of the test compound to the riboswitch. Guanine and oxacillin were used as […] controls, respectively. The formula to measure Miller units is as follows: Millerunits=1000×OD420/t·v·OD600
# Here, t represents the time of incubation with ONPG, and v represents the volume of the reaction.
# [15] = tested on: S. aureus bovine strain 2117 embedded in preformed biofilm; experiment: Biofilm-eradication test (MBEC assay); type: cell-based, Staphylococcus aureus; details: 24 h preformed biofilm
# Description: The viability of bacteria in preformed biofilms treated with PC206 was evaluated using the MBEC assay™ system (formerly the Calgary Biofilm Device). The device consists of a plastic lid with 96 pegs and a 96-well plate. […] Plates were incubated at 35 °C for 24 h with agitation (120 rpm). […] The pegs were washed three times with PBS and the biofilm was sonicated for 10 min, and then transferred into a new 96-well base plate. The 96-well plate was centrifuged for 5 min at 180 g to recover the detached bacteria.
compound,measurement,setting,value
CCCNc1cc(N)nc(N)n1 [PC371],CC50 at 24 h,[1],> 600 µM
same,MIC,[2],> 128 µg/mL
same,MIC,[3],> 128 µg/mL
same,CC50 at 24 h,[4],> 600 µM
same,MIC,[5],> 128 µg/mL
same,CC50 at 24 h,[6],> 600 µM
same,MIC,[7],> 128 µg/mL
same,MIC,[8]; read-out: MIC against all tested bacterial strains,> 128 µg/mL
same,MIC,[9],> 128 µg/mL
same,MIC,[10],> 128 µg/mL
same,MIC,[11],> 128 µg/mL
same,CC50 at 24 h,[12],> 600 µM
same,MIC,[13],> 128 µg/mL
same,Effect on Miller units,"[14]; 512 and 1024 μg/mL, one experiment",did not have any effect on the reporter gene expression
"CNC(C)C1CCC(N)C(OC2C(N)CC(N)C(OC3OCC(C)(O)C(NC)C3O)C2O)O1 (centres unmarked) [Gentamicin, reference compound]",Lowest concentration that significantly reduced CFU/peg,[15],2 µg/mL
"Nc1nc2nc[nH]c2c(=O)[nH]1 [Guanine, reference compound]",Effect on lacZ expression,[14]; concentration as low as 1 µg/mL,strongly inhibited lacZ expression
"O[C@@H](CS)[C@@H](O)CS (racemic) [DTT, dithiothreitol, reference compound]",MIC,[8]; read-out: MIC of DTT,> 75 mM
